According to patent publication US7888341B2, “Combination of glivec (STI571) with a cyclin-dependent kinase inhibitor, especially flavopiridol, in the treatment of cancer” (The United States of America as represented by the …, priority 2002, dated 2011):
Structures can show the parent of a compound that is named as a salt.

Legend:
[1] = system: K562 human leukemia cells; assay: Apoptosis in K562 cells, morphologic assessment of Wright-Giemsa-stained slides; type: cell-based
Description: (§1) They are cultured in drug-free medium prior to all experimental procedures.
Assessment of apoptosis: Following drug exposures, cytocentrifuge preparations are stained with Wright-Giemsa and viewed by light microscopy to evaluate the extent of apoptosis as described in Wang Z. et al., 1999 Cancer Res. 59, 1259-67.
Values represent the means for three separate experiments performed in triplicate±SD (standard deviation).
Values represent the means for three separate experiments performed in triplicate±S.D (standard deviation).
The Combination Index (CI) is determined in relation to the fraction of cells affected using Median Dose Effect analysis. Results are representative of three separate experiments.

[2] = system: K562R cells (drug-resistant K562, high Bcr/Abl protein); assay: Apoptosis in drug-resistant K562R cells, morphologic assessment; type: cell-based, human
Description: as §1
Values represent the means for three separate experiments performed in triplicate±S.D.

With `Cc1ccc(NC(=O)c2ccc(CN3CCN(C)CC3)cc2)cc1Nc1nccc(-c2cccnc2)n1` [SALT I, 4-[(4-methyl-1-piperazin-1-ylmethyl)-N-[4-methyl-3-[[4-(3-pyridinyl)-2-pyrimidinyl]amino]phenyl]benzamide methanesulfonate] the “percentage of apoptotic cells, mean” value ([1]; K562, 24 h, SALT I 200 nM (time course)) was 2.57%, the “percentage of apoptotic cells, mean” value ([1]; K562, 48 h, FP 0 nM + SALT I 200 nM (SALT I alone)) was 5.7% and the “percentage of apoptotic cells, mean” value ([1]; K562, 48 h, SALT I 50 nM without FP) was 1.9%. The “percentage of apoptotic cells, mean” value ([1]; K562, 48 h, SALT I 100 nM without FP) was 1.8%, the “percentage of apoptotic cells, mean” value ([1]; K562, 48 h, SALT I 150 nM without FP) was 3.0% and the “percentage of apoptotic cells, mean” value ([1]; K562, 48 h, SALT I 200 nM (time course)) was 5.97%. The “percentage of apoptotic cells, mean” value ([1]; K562, 48 h, SALT I 200 nM without FP) was 4.6%, the “percentage of apoptotic cells, mean” value ([1]; K562, 48 h, SALT I 250 nM without FP) was 8.9% and the “percentage of apoptotic cells, mean” value ([1]; K562, 48 h, SALT I 300 nM without FP) was 20.3%. For the same compound, the “percentage of apoptotic cells, mean” value ([1]; K562, 48 h, SALT I 400 nM without FP) was 30.8%, the “percentage of apoptotic cells, mean” value ([1]; K562, 48 h, SALT I 500 nM without FP) was 53.8% and the “induction of apoptosis” value ([1]; K562, 48 hr, SALT I concentrations <300 nM) was “weakly induces apoptosis”. It also gave an apoptosis ([1]; parental K562S cells, 1.5 μM SALT I, 48 hr) greater than 95%.

In the case of `CN1CC[C@H](c2c(O)cc(O)c3c(=O)cc(-c4ccccc4Cl)oc23)[C@H](O)C1` [FP, 4H-1-benzopyran-4-one,2-(2-chlorophenyl)-5,7-dihydroxy-8-(3-hydroxy-1-methyl-4-piperidinyl)-,hydrochloride, (−)-cis-], the “toxicity” value ([2]; 48-hr exposure, 150 nM FP) is reported as “non-toxic”, the “percentage of apoptotic cells, mean” value ([2]; 48 h, FP 200 nM) is reported as 1.77% and the cell death ([1]; K562, 150 nM FP by itself) is reported as less than 5%. The “percentage of apoptotic cells, mean” value ([1]; K562, 24 h, FP 150 nM (time course)) was 1.40%, the “percentage of apoptotic cells, mean” value ([1]; K562, 48 h, FP 50 nM without SALT I) was 1.9% and the “percentage of apoptotic cells, mean” value ([1]; K562, 48 h, FP 100 nM without SALT I) was 2.4%. For the same compound, the “percentage of apoptotic cells, mean” value ([1]; K562, 48 h, FP 150 nM (time course)) was 3.33%, the “percentage of apoptotic cells, mean” value ([1]; K562, 48 h, FP 150 nM without SALT I) was 3.2% and the “percentage of apoptotic cells, mean” value ([1]; K562, 48 h, FP 200 nM without SALT I) was 6.1%. For the same compound, the “percentage of apoptotic cells, mean” value ([1]; K562, 48 h, FP 300 nM without SALT I) was 18.5% and the “percentage of apoptotic cells, mean” value ([1]; K562, 48 h, SALT I 0 nM + FP 150 nM (FP alone)) was 0.9%.
